# Experimental data taken from patent publication US8124051B2, “Complex drug delivery composition and method for treating cancer” (priority 2003, dated 2012).
# Where no end group is shown, it is not given here. [ ]: non-standard residue; d: D form.
# T1: LHRH receptor (human, UniProt P30968 1-328)
# T1 sequence (looked up): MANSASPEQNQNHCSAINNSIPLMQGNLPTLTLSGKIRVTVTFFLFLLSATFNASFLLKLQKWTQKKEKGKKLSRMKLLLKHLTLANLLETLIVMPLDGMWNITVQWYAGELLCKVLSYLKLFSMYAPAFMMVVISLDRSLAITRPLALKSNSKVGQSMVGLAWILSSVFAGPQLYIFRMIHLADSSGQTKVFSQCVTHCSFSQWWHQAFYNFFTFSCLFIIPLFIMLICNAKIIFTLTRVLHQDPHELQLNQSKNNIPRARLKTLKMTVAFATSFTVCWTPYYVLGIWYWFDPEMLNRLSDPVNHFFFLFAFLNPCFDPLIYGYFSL
# How the values were obtained:
# [1] = tested on: LHRHR-positive A2780 human ovarian carcinoma cells; test: Cytotoxicity, modified MTT assay; format: cell-based; details: for toxicity: LHRHR-positive cancer cells, up to the highest possible concentration
# Method: (§1) In contrast, LHRH-BH3 peptide was not toxic in cancer cells not expressing LHRHR. Further, non-targeted Ant-BH3 peptide was toxic in both LHRHR-positive and negative cancer cells. […] Thus, the LHRH peptide specifically targets cancer cells expressing the LHRHR and facilitates the uptake of LHRH-conjugates.
# Cytotoxicity of CPT, CPT-PEG, CPT-PEG-BH3, and CPT-PEG-LHRH conjugates and the combination of CPT-PEG-BH3 with CPT-PEG-LHRH conjugates was analyzed using a modified MTT assay (Minko, et al. (1998) supra) in sensitive A2780 and multidrug resistant A2780/AD human ovarian carcinoma cells.
# (§2) Cytotoxicity. The cytotoxicity of drugs were assessed using a modified MTT (3-(4,5-dimethylthiazol-2-yl)-2,5-diphenyltetrazolium bromide) assay (Kunath, et al. (2000) Eur. J. Pharm. Biopharm 49:11-15; Minko, et al. (1998) J. Controlled Rel. 54:223-233; Minko, et al. (1999) J. Controlled Rel. 59:133-148; Minko, et al. (2002) Cancer Chemother. Pharmacol. 50:143-150). To measure cytotoxicity, cells were incubated in a 96-well microtiter plate with 45 different equivalent concentrations of CPT ranging from […] in a complex conjugate. Six wells were used for control cells. The duration of incubation was varied from 3 to 72 hours to find an optimal range of incubation time for each complex conjugate.
# [2] = tested on: A2780 human ovarian carcinoma cells; test: RT-PCR expression of caspases, APAF-1 and SMAC; format: cell-based
# Method: The effect of the LHRH-BH3 peptide on apoptosis was analyzed by measuring transcriptional and translational levels and activity of human caspases. […] Active caspase 9, in turn, activates a cascade of downstream caspases, as evidenced by increased expression levels, which subsequently leads to induction of apoptosis.
# Cystein aspartate-specific proteases (caspases). Three approaches were used to analyze the role of each of the human caspases in the apoptosis induction. First, the expression of genes encoding human caspases 1-10 and the Apoptotic Protease Activating Factor (APAF-1) and Second Mitochondria-Derived Activator of Caspase (SMAC) were studied by RT-PCR (Minko, et al. (1999) supra; Minko, et al. (2000) supra). […] Therefore, in addition to the measurement of the gene expression, the amount of active caspases and activity of the enzymes was measured. The amount of active caspases was estimated by western blot analysis. The activity of expressed caspases was measured using the Caspase Protease Assay kit (MBL International, Watertown, Mass.) or a colorimetric protease assay kit (PanVera, Madison, Wis.) (Minko, et al. (2001) supra). Cells were separately incubated with the conjugates for 48 hours. The assay colormetric assay is based on the spectrophotometric detection of the chromophore p-nitroanilide (pNA) after cleavage from the substrate, X-pNA. An increase in caspase activity was determined by comparing levels in cells exposed to conjugates to levels in cells of the untreated control incubated with saline.
# (§3) Gene expression. A combination of reverse transcription (RT) and polymerase chain reaction (PCR) was used for the analysis of gene expression as described (Minko, et al. (1999) J. Controlled Rel. 59:133-148). Briefly, total cellular RNA was isolated using an RNeasy kit (QIAGEN,™, Valencia, Calif.) and a […]™ micro-spin homogenizer (QIAGEN). First-strand cDNA was synthesized by Ready-To-Go You-Prime First-Strand Beads (Amersham Biosciences, Piscataway, N.J.) according to the manufacturer's instructions with 2 μg of total cellular RNA (from 1×10^7 cells) and 100 ng of random hexadeoxynucleotide primer (Amersham Biosciences, Piscataway, N.J.). After synthesis, the reaction mixture was diluted 1:3 with water and immediately subjected to PCR, which was carried out using GenAmp PCR System 2400 (Perkin Elmer Instruments, Shelton, Conn.). The pairs of primers used to amplify each type of cDNA and PCR regimes are well-known in the art (Kunath, et al. (2000) supra; Minko, et al. (2003) supra; Minko, et al. (2002) supra; Minko, et al. (1999) supra; Minko, et al. (2000) supra; Minko, et al. (2001) supra). PCR products were separated in 4% NUSIEVE® 3:1 RELIANT® agarose gels (BMA, East Rutherford, N.J.) in 1×TBE buffer (0.089 M Tris/Borate, 0.002 M EDTA, pH 8.3) by submarine electrophoresis. The gels were stained with ethidium bromide and digitally photographed. To calculate the size and amount of PCR products, a Low DNA Mass ladder (GibcoBRL, Carlsbad, Calif.) was used. β2-microglobulin was used as an internal standard and to confirm the efficacy of PCR (Kunath, et al. (2000) supra; Minko, et al. (2001) supra).
# [3] = tested on: genes encoding antiapoptotic members of the BCL-2 protein family; test: RT-PCR expression of genes encoding antiapoptotic members of the BCL-2 protein family; format: cell-based, human; details: 48 hours, IC50 dose of Ant-BH3 peptide; β2-m internal standard
# Method: (§4) The influence of BH3 peptide, delivered by an Ant-BH3 fusion peptide, on the expression of proteins and genes encoding proapoptotic and antiapoptotic members of the BCL-2 protein family was determined. The expression of genes was measured by RT-PCR using β2-m as an internal standard.
# (§5) Cell death signaling pathways. To characterize the cell death signaling pathways, the expression of p53, c-fos, c-jun, proapoptotic (BAD, BAX, BCL-G, BCL-W, BCL-XS, BID, BIK, BIM, BNIP 1-3, HARAKIR1, MSL-1S, NIX) and antiapoptotic (BCL-2, AVEN, BAG, BCL-XL, BFL, DAD1, MSL-1) members of BCL-2 family of proteins and genes encoding these proteins were measured by western blot analysis and RT-PCR, respectively using well-established methods known to those of skill in the art.
# as §3
# [4] = tested on: human ovarian carcinoma cells; test: Mitochondrial transmembrane potential, JC-1 probe, flow cytometry; format: cell-based; details: JC-1 red/green fluorescence ratio
# Method: (§6) By way of example, the effectiveness of a BH3 peptide ([…] SEQ ID NO:1) to increase cell death by inducing the mitochondrial dysfunction leading to necrosis was measured. BH3 peptide was delivered into human ovarian carcinoma cells by the Antennapedia (Ant) internalization sequence (Arg-Gln-Ile-lys-[…] SEQ ID NO:2). Mitochondrial function was assessed by flow cytometry analysis using the lipophilic cationic fluorescent probe 5,5′,6,6′-tetrachloro-1,1′,3,3′-tetraethylbenzimidazolcarbo-cyanine iodide (JC-1). This probe exists as a monomer, and upon excitation at 490 nm, emits light at 527 nm resulting in green fluorescence. At high mitochondrial transmembrane potential, JC-1 forms multimers, known as J-aggregates, and emits light at 590 nm upon excitation at 490 nm resulting in red fluorescence. Therefore, the red/green fluorescence ratio measured by flow cytometry reflects the number of functioning mitochondria. Ant alone was not toxic up to the highest possible concentration (1 mg/mL). In contrast, the combination of Ant with BH3 peptide led to a significant increase in toxicity of the peptide. […] The effect of the Ant-BH3 peptide on mitochondrial transmembrane potential was also determined.
# [5] = tested on: genes encoding proapoptotic members of the BCL-2 protein family; test: RT-PCR expression of genes encoding proapoptotic members of the BCL-2 protein family; format: cell-based, human; details: 48 hours, IC50 dose of Ant-BH3 peptide; β2-m internal standard
# Method: as §4, §5, §3
# [6] = tested on: cancer cells not expressing LHRHR; test: Cytotoxicity in LHRHR-negative cancer cells; format: cell-based
# Method: as §1, §2
# [7] = tested on: A2780 human ovarian carcinoma cells; test: Expression of BCL-2, BCL-XL, SMAC, APAF-1, caspase 9 and caspase 3 genes after CPT conjugates; format: cell-based; details: 48-hour incubation
# Method: The expression of genes encoding antiapoptotic members of the BCL-2 protein family (BCL-2 and BCL-XL), caspase activators (SMAC and APAF-1), caspase 9 (apoptosis inhibitor) and caspase 3 (apoptosis executor) as well as the activity of the caspases was measured after a 48-hour incubation of A2780 human ovarian carcinoma cells with CPT, CPT-PEG, CPT-PEG-BH3, or CPT-PEG-LHRH conjugates.
# Gene expression. A combination of reverse transcription (RT) and polymerase chain reaction (PCR) was used for the analysis of gene expression as described (Minko, et al. (1999) J. Controlled Rel. 59:133-148). Briefly, total cellular RNA was isolated using an RNeasy kit (QIAGEN,™, Valencia, Calif.) and a […] ™ micro-spin homogenizer (QIAGEN). First-strand cDNA was synthesized by Ready-To-Go You-Prime First-Strand Beads (Amersham Biosciences, Piscataway, N.J.) according to the manufacturer's instructions with 2 μg of total cellular RNA (from 1×10^7 cells) and 100 ng of random hexadeoxynucleotide primer (Amersham Biosciences, Piscataway, N.J.). After synthesis, the reaction mixture was diluted 1:3 with water and immediately subjected to PCR, which was carried out using GenAmp PCR System 2400 (Perkin Elmer Instruments, Shelton, Conn.). […]
# [8] = tested on: human ovarian carcinoma cells; test: Cytotoxicity (IC50 dose) of Ant, Ant-BH3 peptide and DOX; format: cell-based; details: highest possible concentration
# Method: as §6, with “mitochondria.” for “mitochondria. Ant alone was not toxic up to the highest possible concentration (1 mg/mL). In contrast, the combination of Ant with BH3 peptide led to a significant increase in toxicity of the peptide.”
# Cytotoxicity. The cytotoxicity of drugs were assessed using a modified MTT (3-(4,5-dimethylthiazol-2-yl)-2,5-diphenyltetrazolium bromide) assay (Kunath, et al. (2000) Eur. J. Pharm. Biopharm 49:11-15; Minko, et al. (1998) J. Controlled Rel. 54:223-233; Minko, et al. (1999) J. Controlled Rel. 59:133-148; Minko, et al. (2002) Cancer Chemother. Pharmacol. 50:143-150). […]
# LHRH receptor = target: T1, LHRH receptor; test: cell-based or functional assay
# [9] = A2780, 48 hours, IC50 dose of peptide, ratio of band intensity to β2-m internal standard
molecule,measurement,setting,value
"CCNC(=O)[C@@H]1CCCN1C(=O)[C@H](CCCNC(=N)N)NC(=O)[C@H](CC(C)C)NC(=O)[C@@H](CCCCN)NC(=O)[C@H](Cc1ccc(O)cc1)NC(=O)[C@H](CO)NC(=O)[C@H](Cc1c[nH]c2ccccc12)NC(=O)[C@H](Cc1c[nH]cn1)NC(=O)[C@@H]1CCC(=O)N1 [LHRH peptide, LHRH-Lys^6-des-Gly^10-Pro^9-ethylamide, reference compound]",toxicity,[1],did not have any significant toxicity
Met-Gly-Gln-Val-Gly-Arg-Gln-Leu-Ala-Ile-Ile-Gly-Asp-Asp-Ile-Asn-Arg-Arg-Tyr (MGQVGRQLAIIGDDINRRY; Synthetic BH3 domain peptide) [BH3 peptide],concentration up to which not toxic,"[1]; A2780, maximal possible concentration limited by solubility",> 1 mg/mL
same,"expression of caspases 1, 4, and 5",[2]; A2780 cells,not expressed
RQIKIWFQNRRMKWKKMGQVGRQLAIIGDDINRRY [Ant-BH3],toxicity,[1],toxic
same,"Expression, % of Control: AVEN",[3],78 ± 2 % of Control
same,"Expression, % of Control: BAG",[3],56 ± 5 % of Control
same,"Expression, % of Control: BCL-2",[3],66 ± 7 % of Control
same,"Expression, % of Control: BCL-W",[3],97 ± 8 % of Control
same,"Expression, % of Control: BCL-XL",[3],64 ± 3 % of Control
same,"Expression, % of Control: BFL",[3],70 ± 2 % of Control
same,"Expression, % of Control: DAD-1",[3],99 ± 5 % of Control
same,"Expression, % of Control: MCL-1L",[3],108 ± 8 % of Control
same,changes in mitochondrial membrane potential,[4],did not lead to statistically significant changes
same,"Expression, % of Control: BAD",[5],90 ± 8 % of Control
same,"Expression, % of Control: BAX",[5],91 ± 9 % of Control
same,"Expression, % of Control: BCL-G",[5],87 ± 11 % of Control
same,"Expression, % of Control: BCL-XS",[5],168 ± 11 % of Control
same,"Expression, % of Control: BID",[5],99 ± 9 % of Control
same,"Expression, % of Control: BIK",[5],511 ± 42 % of Control
same,"Expression, % of Control: BIM",[5],114 ± 17 % of Control
same,"Expression, % of Control: BNIP-1",[5],93 ± 8 % of Control
same,"Expression, % of Control: BNIP-2",[5],173 ± 14 % of Control
same,"Expression, % of Control: BNIP-3",[5],69 ± 6 % of Control
same,"Expression, % of Control: HRK",[5],88 ± 10 % of Control
same,"Expression, % of Control: MLS-1S",[5],130 ± 11 % of Control
same,"Expression, % of Control: NIX",[5],89 ± 10 % of Control
same,toxicity,[6],toxic
same,Mean Gene Expression ± SD: APAF-1,[2]; [9],78 ± 3
same,Mean Gene Expression ± SD: Caspase 2,[2]; [9],134 ± 5
same,Mean Gene Expression ± SD: Caspase 3,[2]; [9],60 ± 5
same,Mean Gene Expression ± SD: Caspase 6,[2]; [9],77 ± 5
same,Mean Gene Expression ± SD: Caspase 7,[2]; [9],88 ± 8
same,Mean Gene Expression ± SD: Caspase 8,[2]; [9],70 ± 6
same,Mean Gene Expression ± SD: Caspase 9,[2]; [9],126 ± 11
same,Mean Gene Expression ± SD: Caspase 10,[2]; [9],48 ± 3
same,Mean Gene Expression ± SD: SMAC,[2]; [9],77 ± 2
same,expression of APAF-1 and SMAC,[2]; A2780 cells,up-regulation
"CC[C@@]1(O)C(=O)OCc2c1cc1n(c2=O)Cc2cc3ccccc3nc2-1 [CPT, camptothecin]",activation of caspase-dependent apoptosis pathway and cellular antiapoptotic defense (gene expression),[7],activated both caspase-dependent pathways of apoptosis and cellular antiapoptotic defense
Arg-Gln-Ile-lys-Ile-Trp-Phe-Gln-Asn-Arg-Arg-Met-Lys-Trp-Lys-Lys (RQIKIWFQNRRMKWKK; Antennapedia internalization peptide),concentration up to which not toxic,[8],> 1 mg/mL
"LHRH-BH3 peptide (ends and bridges not checked; also: LHRH analog and BH3 peptide are joined, the linkage is not given here) peptide 1: QHWSY[dK]LRP-NHEt peptide 2: MGQVGRQLAIIGDDINRRY","cytotoxicity IC50 (modified MTT assay), LHRHR-positive A2780 human ovarian cancer cells",LHRH receptor,3.97 ng/mL
same,"toxicity in MCF-7 cells (LHRHR expression 1.6-fold less) relative to toxicity in A2780 cells, fold less",LHRH receptor,10 fold
same,"toxicity in PC-3 cells (LHRHR expression 3.2-fold less) relative to toxicity in A2780 cells, fold less",LHRH receptor,100 fold
QHWSY[dK]LRP-NHEt (ends and bridges not checked) [LHRH-Lys^6-des-Gly^10-Pro^9-ethylamide (active analog of the LHRH peptide)],"concentration of LHRH that decreased cytotoxicity of LHRH-BH3 peptide by 50% (EC50 dose of LHRH peptide), A2780 cells",LHRH receptor,7.3e-05 ng/mL
